Source: the NIST ThermoML archive (doi:10.1016/j.jct.2019.02.019)
± gives the expanded uncertainty stated by the source.

Assay: xn = mol fraction of the nth substance listed
Conditions: 101 kPa, Liquid; for viscosity: Capillary tube (Ostwald / Ubbelohde) method; for mass density: Vibrating tube method

NCCO [2-aminoethan-1-ol] + CCO
Conditions	mass density, 293.15 K [kg/m3]	mass density, 303.15 K [kg/m3]	mass density, 313.15 K [kg/m3]	mass density, 323.15 K [kg/m3]	viscosity, 293.15 K [mPa·s]	viscosity, 303.15 K [mPa·s]	viscosity, 313.15 K [mPa·s]	viscosity, 323.15 K [mPa·s]
x1 = 0.1002	816.84 ± 1.5	808.87 ± 1.5	799.33 ± 1.5	791.69 ± 1.4	1.56 ± 0.07	1.27 ± 0.05	1.05 ± 0.04	0.87 ± 0.04
x1 = 0.1999	843.68 ± 1.4	834.94 ± 1.4	825.34 ± 1.4	817.35 ± 1.4	2.12 ± 0.09	1.68 ± 0.07	1.36 ± 0.06	1.11 ± 0.05
x1 = 0.3002	868.92 ± 1.4	860.42 ± 1.4	850.66 ± 1.4	842.49 ± 1.4	2.89 ± 0.12	2.23 ± 0.09	1.77 ± 0.07	1.42 ± 0.06
x1 = 0.4004	893.15 ± 1.4	884.54 ± 1.4	874.69 ± 1.4	866.58 ± 1.4	3.96 ± 0.17	2.98 ± 0.13	2.29 ± 0.1	1.8 ± 0.08
x1 = 0.5	916.18 ± 1.4	907.59 ± 1.4	897.82 ± 1.4	889.61 ± 1.4	5.44 ± 0.23	3.96 ± 0.17	2.95 ± 0.12	2.28 ± 0.1
x1 = 0.5998	938.02 ± 1.3	929.38 ± 1.3	919.84 ± 1.3	911.88 ± 1.3	7.45 ± 0.32	5.23 ± 0.22	3.8 ± 0.16	2.87 ± 0.12
x1 = 0.7	959.13 ± 1.3	950.81 ± 1.3	941.56 ± 1.3	933.03 ± 1.3	10.19 ± 0.43	6.92 ± 0.29	4.87 ± 0.2	3.6 ± 0.15
x1 = 0.7996	978.96 ± 1.3	970.81 ± 1.3	961.95 ± 1.3	953.82 ± 1.3	13.74 ± 0.58	9.05 ± 0.38	6.17 ± 0.26	4.48 ± 0.19
x1 = 0.8994	998.41 ± 1.3	989.98 ± 1.3	981.44 ± 1.3	973.33 ± 1.3	18.22 ± 0.76	11.74 ± 0.49	7.74 ± 0.32	5.48 ± 0.23
x1 = 1	1016.3 ± 1	1008.02 ± 1	999.98 ± 1	991.97 ± 1	23.4 ± 0.95	14.71 ± 0.6	9.77 ± 0.4	6.83 ± 0.28

CN(CCO)CCO [N-methyldiethanolamine] + CCO
Conditions	mass density, 293.15 K [kg/m3]	mass density, 303.15 K [kg/m3]	mass density, 313.15 K [kg/m3]	mass density, 323.15 K [kg/m3]	viscosity, 293.15 K [mPa·s]	viscosity, 303.15 K [mPa·s]	viscosity, 313.15 K [mPa·s]	viscosity, 323.15 K [mPa·s]
x1 = 0.1003	838.89 ± 2.1	830.03 ± 2	820.48 ± 2	812.93 ± 2	1.95 ± 0.09	1.54 ± 0.07	1.27 ± 0.06	1.03 ± 0.05
x1 = 0.2001	879.56 ± 1.8	869.79 ± 1.8	860.28 ± 1.8	852.57 ± 1.8	3.25 ± 0.15	2.45 ± 0.11	1.94 ± 0.09	1.52 ± 0.07
x1 = 0.3001	913.83 ± 1.6	903.04 ± 1.6	893.56 ± 1.6	885.65 ± 1.6	5.36 ± 0.24	3.88 ± 0.17	2.95 ± 0.13	2.25 ± 0.1
x1 = 0.3998	941.42 ± 1.4	930.67 ± 1.4	921.43 ± 1.4	913.45 ± 1.4	8.77 ± 0.4	6.08 ± 0.27	4.5 ± 0.2	3.32 ± 0.14
x1 = 0.5	964.94 ± 1.3	954.51 ± 1.3	945.44 ± 1.3	937.39 ± 1.3	14.09 ± 0.63	9.41 ± 0.41	6.64 ± 0.29	4.79 ± 0.21
x1 = 0.5999	984.81 ± 1.2	974.63 ± 1.3	965.86 ± 1.3	957.92 ± 1.3	21.94 ± 0.97	14.14 ± 0.62	9.68 ± 0.42	6.79 ± 0.29
x1 = 0.7	1001.91 ± 1.2	992.31 ± 1.2	983.56 ± 1.2	975.64 ± 1.2	33.37 ± 1.5	20.8 ± 0.9	13.69 ± 0.59	9.4 ± 0.4
x1 = 0.8001	1016.76 ± 1.2	1007.51 ± 1.2	999.13 ± 1.2	991.3 ± 1.2	49.36 ± 2.2	29.56 ± 1.3	18.85 ± 0.8	12.44 ± 0.53
x1 = 0.9005	1029.58 ± 1.1	1020.96 ± 1.1	1012.93 ± 1.1	1005.16 ± 1.1	72.94 ± 3.2	41.84 ± 1.8	25.38 ± 1.1	16.52 ± 0.7
x1 = 1	1040.5 ± 1	1032.6 ± 1	1024.76 ± 1	1017.12 ± 1	103.04 ± 4.3	57.28 ± 2.3	33.94 ± 1.4	21.31 ± 0.87

CN(CCO)CCO [N-methyldiethanolamine] + NCCO
Conditions	mass density, 293.15 K [kg/m3]	mass density, 303.15 K [kg/m3]	mass density, 313.15 K [kg/m3]	mass density, 323.15 K [kg/m3]	viscosity, 293.15 K [mPa·s]	viscosity, 303.15 K [mPa·s]	viscosity, 313.15 K [mPa·s]	viscosity, 323.15 K [mPa·s]
x1 = 0.1001	1021.71 ± 1	1013.23 ± 1	1005.13 ± 1	997.1 ± 1	32.9 ± 1.4	19.84 ± 0.84	12.83 ± 0.54	8.4 ± 0.35
x1 = 0.2006	1025.79 ± 1	1017.39 ± 1	1009.3 ± 1	1001.26 ± 1	43.27 ± 1.8	25.18 ± 1.1	15.97 ± 0.66	10.48 ± 0.44
x1 = 0.3	1029.07 ± 1	1020.72 ± 1	1012.66 ± 1	1004.69 ± 1	52.78 ± 2.2	30.53 ± 1.3	18.92 ± 0.78	12.49 ± 0.52
x1 = 0.3998	1031.69 ± 1	1023.42 ± 1	1015.36 ± 1	1007.45 ± 1	62.64 ± 2.6	35.8 ± 1.5	21.86 ± 0.9	14.3 ± 0.59
x1 = 0.4994	1033.82 ± 1	1025.62 ± 1	1017.61 ± 1	1009.72 ± 1	71.4 ± 2.9	40.6 ± 1.7	24.53 ± 1	15.83 ± 0.65
x1 = 0.5997	1035.58 ± 1	1027.46 ± 1	1019.48 ± 1	1011.68 ± 1	79.47 ± 3.3	45.11 ± 1.9	26.97 ± 1.1	17.35 ± 0.71
x1 = 0.6977	1037.09 ± 1	1029.04 ± 1	1021.11 ± 1	1013.34 ± 1	86.28 ± 3.6	48.61 ± 2	29.05 ± 1.2	18.6 ± 0.76
x1 = 0.7996	1038.43 ± 1	1030.43 ± 1	1022.52 ± 1	1014.79 ± 1	92.9 ± 3.9	52.06 ± 2.1	30.87 ± 1.3	19.64 ± 0.8
x1 = 0.8995	1039.57 ± 1	1031.61 ± 1	1023.72 ± 1	1016.04 ± 1	98.21 ± 4.1	54.8 ± 2.2	32.88 ± 1.3	20.56 ± 0.84
x1 = 1	1040.5 ± 1	1032.6 ± 1	1024.76 ± 1	1017.12 ± 1	103.04 ± 4.3	57.28 ± 2.3	33.94 ± 1.4	21.31 ± 0.87
